Where a name gives a salt, the structure may show the parent alone.
target: Bile salt export pump (Homo sapiens, UniProt O95342); assay: Inhibition of human BSEP expressed in fall armyworm sf9 cell plasma membrane vesicles assessed as reduction in vesicle-associated [3H]-taurocholate transport preincubated for 10 mins prior to ATP addition measured after 15 mins in presence of [3H]-taurocholate by topcount based membrane vesicle transport assay; format: ADME

| SMILES | IC50 |
| --- | --- |
| COc1cccc2c1C(=O)c1c(O)c3c(c(O)c1C2=O)C[C@@](O)(C(=O)CO)C[C@@H]3O[C@H]1C[C@H](N)[C@H](O)[C@H](C)O1 [DOXORUBICIN] | > 135 µM |
| CN(C)CCCN1c2ccccc2Sc2ccc(Cl)cc21 [CHLORPROMAZINE] | > 135 µM |
| CCN1CCC[C@H]1CNC(=O)c1c(OC)ccc(Br)c1OC [REMOXIPRIDE] | > 135 µM |
| CCCCNc1cc(C(=O)O)cc(S(N)(=O)=O)c1Oc1ccccc1 [BUMETANIDE] | > 135 µM |
| CO[C@H]1/C=C/O[C@@]2(C)Oc3c(C)c(O)c4c(O)c(c(/C=N/N5CCN(C)CC5)c(O)c4c3C2=O)NC(=O)/C(C)=C\C=C\[C@H](C)[C@H](O)[C@@H](C)[C@@H](O)[C@@H](C)[C@H](OC(C)=O)[C@@H]1C [RIFAMPIN] | 25.3 µM |
| ClC(Cl)(Cl)Cl [CARBON TETRACHLORIDE] | > 135 µM |
| CCCc1nc2c(C)cc(-c3nc4ccccc4n3C)cc2n1Cc1ccc(-c2ccccc2C(=O)O)cc1 | 16.2 µM |
| CCC1=C(C)CN(C(=O)NCCc2ccc(S(=O)(=O)NC(=O)N[C@H]3CC[C@H](C)CC3)cc2)C1=O [GLIMEPIRIDE] | 15.7 µM |
| Cn1c(=O)c2[nH]cnc2n(C)c1=O [THEOPHYLLINE] | > 135 µM |
| CC(C)Cc1ccc(C(C)C(=O)O)cc1 (stereo not given) [IBUPROFEN] | > 135 µM |
| Cc1ccc(-c2ncc(Cl)cc2-c2ccc(S(C)(=O)=O)cc2)cn1 [ETORICOXIB] | 45 to 60 µM |
| CN1CCC[C@H]1c1cccnc1 [NICOTINE] | > 135 µM |
| NC(N)=Nc1nc(CSCCC(N)=NS(N)(=O)=O)cs1 [FAMOTIDINE] | > 135 µM |
| Cc1c(OCC(F)(F)F)ccnc1C[S+]([O-])c1nc2ccccc2[nH]1 (stereo not given) [LANSOPRAZOLE] | > 135 µM |
| C[C@H]1C[C@H]2[C@@H]3CCC4=CC(=O)C=C[C@]4(C)[C@@]3(F)[C@@H](O)C[C@]2(C)[C@@]1(O)C(=O)CO [BETAMETHASONE] | > 135 µM |
| CCOC(=O)C1=C(C)NC(C)=C(C(=O)OC)C1c1cccc([N+](=O)[O-])c1 (stereo not given) [NITRENDIPINE] | 25 to 45 µM |
| CCCCCC[C@H]1C(=O)O[C@H](C)[C@H](NC(=O)c2cccc(NC=O)c2O)C(=O)O[C@@H](C)[C@@H]1OC(=O)CC(C)C [ANTIMYCIN A] | 45 to 60 µM |
| CS(=O)(=O)OCCCCOS(C)(=O)=O [BUSULFAN] | > 135 µM |
| CN(C)CCC=C1c2ccccc2CCc2ccccc21 [AMITRIPTYLINE] | > 135 µM |
| CC1=C(CC(=O)O)c2cc(F)ccc2/C1=C\c1ccc([S+](C)[O-])cc1 (stereo not given) | > 135 µM |
| COc1ccccc1N1CCN(CCCNc2cc(=O)n(C)c(=O)n2C)CC1 | > 135 µM |
| Cc1ccc(C(=O)Nc2ccc(S(=O)(=O)O)c3cc(S(=O)(=O)O)cc(S(=O)(=O)O)c23)cc1NC(=O)c1cccc(NC(=O)Nc2cccc(C(=O)Nc3cc(C(=O)Nc4ccc(S(=O)(=O)O)c5cc(S(=O)(=O)O)cc(S(=O)(=O)O)c45)ccc3C)c2)c1 [SURAMIN] | > 135 µM |

| SMILES | IC50 |
| --- | --- |
| N=C(N)NC(=O)Cc1c(Cl)cccc1Cl [GUANFACINE] | > 135 µM |
| CC[C@]1(O)C[C@@H]2CN(CCc3c([nH]c4ccccc34)[C@@](C(=O)OC)(c3cc4c(cc3OC)N(C)[C@H]3[C@@](O)(C(=O)OC)[C@H](OC(C)=O)[C@]5(CC)C=CCN6CC[C@]43[C@@H]65)C2)C1 [VINBLASTINE] | > 135 µM |
| CCc1oc2ccccc2c1C(=O)c1cc(Br)c(O)c(Br)c1 [BENZBROMARONE] | 17.5 µM |
| CNC1(c2ccccc2Cl)CCCCC1=O (stereo not given) [KETAMINE] | > 135 µM |
| CC(CN1c2ccccc2Sc2ccccc21)N(C)C (stereo not given) [PROMETHAZINE] | > 135 µM |
| Nc1ccc(S(=O)(=O)Nc2ncccn2)cc1 [SULFADIAZINE] | > 135 µM |
| [H]/N=C(/N)N/C(=N/[H])NCCc1ccccc1 [PHENFORMIN] | > 135 µM |
| CCCNC(=O)NS(=O)(=O)c1ccc(Cl)cc1 [CHLORPROPAMIDE] | > 135 µM |
| CN(C)C(=O)CCSC(SCCC(=O)O)c1cccc(/C=C/c2ccc3ccc(Cl)cc3n2)c1 (stereo not given) [MK-571] | 3.5 µM |
| CC(=O)Nc1ccc(O)cc1 [ACETAMINOPHEN] | > 135 µM |
| Cc1cccc(Nc2cc(Cl)nc(SCC(=O)O)n2)c1C [PIRINIXIC ACID] | 75 to 105 µM |
| COC(=O)[C@H]1[C@H]2C[C@@H]3c4[nH]c5cc(OC)ccc5c4CCN3C[C@H]2C[C@@H](OC(=O)c2cc(OC)c(OC)c(OC)c2)[C@@H]1OC [RESERPINE] | 8.4 µM |
| COCC(=O)O[C@]1(CCN(C)CCCc2nc3ccccc3[nH]2)CCc2cc(F)ccc2[C@@H]1C(C)C [MIBEFRADIL] | 25 to 45 µM |
| N[C@@H](CC(=O)N1CCn2c(nnc2C(F)(F)F)C1)Cc1cc(F)c(F)cc1F [SITAGLIPTIN] | > 135 µM |
| COc1ccccc1Oc1c(NS(=O)(=O)c2ccc(C(C)(C)C)cc2)nc(-c2ncccn2)nc1OCCO [BOSENTAN] | 22 µM |
| Clc1ccc2nsnc2c1NC1=NCCN1 [TIZANIDINE] | > 135 µM |
| Cc1noc(NS(=O)(=O)c2ccc(N)cc2)c1C [SULFISOXAZOLE] | > 135 µM |
| c1ccc2c(c1)OCC(C1=NCCN1)O2 (stereo not given) [IDAZOXAN] | > 135 µM |
| O=c1n(CCCN2CCN(c3cccc(Cl)c3)CC2)nc2ccccn12 [TRAZODONE] | > 135 µM |
| S=C=Nc1cccc2ccccc12 [1-NAPHTHYLISOTHIOCYANATE] | 60 to 75 µM |
| CN1CCc2cccc3c2[C@H]1Cc1ccc(O)c(O)c1-3 [APOMORPHINE] | > 135 µM |
| O=C(O)CCCc1ccc(N(CCCl)CCCl)cc1 [CHLORAMBUCIL] | > 135 µM |

| SMILES | IC50 |
| --- | --- |
| C=CC1=C(C(=O)O)N2C(=O)[C@@H](NC(=O)/C(=N\OCC(=O)O)c3csc(N)n3)[C@H]2SC1 [CEFIXIME] | > 135 µM |
| CC(C)(Oc1ccc(C2CC2(Cl)Cl)cc1)C(=O)O (stereo not given) [CIPROFIBRATE] | > 135 µM |
| CCOc1ccc(/C=C2\NCCc3cc(OCC)c(OCC)cc32)cc1OCC [DROTAVERINE] | 37 µM |
| COc1cc(Cc2cnc(N)nc2N)cc(OC)c1OC [TRIMETHOPRIM] | > 135 µM |
| CNC1=Nc2ccc(Cl)cc2C(c2ccccc2)=[N+]([O-])C1 [CHLORDIAZEPOXIDE] | 25 to 45 µM |
| Cc1onc(-c2c(Cl)cccc2Cl)c1C(=O)N[C@@H]1C(=O)N2[C@@H]1SC(C)(C)[C@@H]2C(=O)O [DICLOXACILLIN] | 45 to 60 µM |
| Cc1cc(NS(=O)(=O)c2ccc(N)cc2)no1 [SULFAMETHOXAZOLE] | > 135 µM |
| CC1Cc2ccccc2N1NC(=O)c1ccc(Cl)c(S(N)(=O)=O)c1 (stereo not given) [INDAPAMIDE] | > 135 µM |
| CN(C)C(=O)Oc1cccc([N+](C)(C)C)c1 [NEOSTIGMINE] | > 135 µM |
| C[C@H]1C[C@@H]2[C@H]([C@@H](O)C[C@@]3(C)[C@H]2CC[C@]3(O)C(=O)CO)[C@@]2(C)C=CC(=O)C=C12 [METHYLPREDNISOLONE] | > 135 µM |
| C=CCc1ccccc1OCC(O)CNC(C)C (stereo not given) [ALPRENOLOL] | > 135 µM |
| CCn1cc(C(=O)O)c(=O)c2cc(F)c(N3CCN(C)CC3)cc21 [PEFLOXACIN] | > 135 µM |
| CC(=O)O[C@H]1C[C@@]2(C)[C@@H](C[C@@H](O)[C@H]3[C@@]4(C)CC[C@@H](O)[C@@H](C)[C@@H]4CC[C@@]32C)/C1=C(\CCC=C(C)C)C(=O)O [FUSIDIC ACID] | 10.1 µM |
| C(=C\c1ccccc1)/CN1CCN(C(c2ccccc2)c2ccccc2)CC1 [CINNARIZINE] | 15.7 µM |
| CC(C)[C@@H]1NC(=O)[C@H](C)OC(=O)[C@@H](C(C)C)NC(=O)[C@@H](C(C)C)OC(=O)[C@H](C(C)C)NC(=O)[C@H](C)OC(=O)[C@@H](C(C)C)NC(=O)[C@@H](C(C)C)OC(=O)[C@H](C(C)C)NC(=O)[C@H](C)OC(=O)[C@@H](C(C)C)NC(=O)[C@@H](C(C)C)OC1=O [VALINOMYCIN] | 1.6 µM |
| O=C(c1ccc(F)cc1)C1CCN(CCn2c(=O)[nH]c3ccccc3c2=O)CC1 [KETANSERIN] | > 135 µM |
| COc1ccc(Cl)cc1[C@]1(F)C(=O)Nc2cc(C(F)(F)F)ccc21 [FLINDOKALNER] | > 135 µM |
| CC(C)(C)NCC(O)COc1cccc2c1CC(O)C(O)C2 (stereo not given) [NADOLOL] | > 135 µM |
| COC[C@H]1OC(=O)c2coc3c2[C@@]1(C)C1=C(C3=O)[C@@H]2CCC(=O)[C@@]2(C)C[C@H]1OC(C)=O [WORTMANNIN] | 13.6 µM |
| Oc1ccc2c(c1)[C@@]13CCCC[C@@]1(O)[C@@H](C2)N(CC1CCC1)CC3 [BUTORPHANOL] | > 135 µM |
| CCOC(=O)c1ncn2c1CN(C)C(=O)c1cc(F)ccc1-2 [FLUMAZENIL] | > 135 µM |
| O=c1[nH]cc(F)c(=O)[nH]1 [FLUOROURACIL] | > 135 µM |

| SMILES | IC50 |
| --- | --- |
| CC[C@H]1CN2CCc3cc(OC)c(OC)cc3[C@@H]2C[C@@H]1C[C@H]1NCCc2cc(OC)c(OC)cc21 [EMETINE] | > 135 µM |
| COc1ccc2c3c1O[C@H]1C[C@@H](O)C=C[C@@]31CCN(C)C2 [GALANTAMINE] | > 135 µM |
| CN(Cc1cnc2nc(N)nc(N)c2n1)c1ccc(C(=O)N[C@@H](CCC(=O)O)C(=O)O)cc1 [METHOTREXATE] | > 135 µM |
| CCOc1ccc(NC(C)=O)cc1 [PHENACETIN] | > 135 µM |
| CCc1ccc(CCOc2ccc(CC3SC(=O)NC3=O)cc2)nc1 (stereo not given) [PIOGLITAZONE] | 0.4 µM |
| N=C(N)c1ccc(OCCCCCOc2ccc(C(=N)N)cc2)cc1 [PENTAMIDINE] | > 135 µM |
| COc1cc(NC(C)CCCN)c2ncccc2c1 (stereo not given) [PRIMAQUINE] | 32.7 µM |
| CCCCc1ncc(/C=C(\Cc2cccs2)C(=O)O)n1Cc1ccc(C(=O)O)cc1 [EPROSARTAN] | > 135 µM |
| C#CCN(C)[C@H](C)Cc1ccccc1 [SELEGILINE HYDROCHLORIDE] | > 135 µM |
| CN1C(C(=O)Nc2ccccn2)=C(O)c2sccc2S1(=O)=O [TENOXICAM] | > 135 µM |
| CCCCNC(=O)NS(=O)(=O)c1ccc(C)cc1 [TOLBUTAMIDE] | > 135 µM |
| CC(=O)Oc1ccccc1C(=O)O [ASPIRIN] | > 135 µM |
| C[C@@H]1C[C@H]2[C@@H]3CCC4=CC(=O)C=C[C@]4(C)[C@@]3(F)[C@@H](O)C[C@]2(C)[C@@]1(O)C(=O)CO [DEXAMETHASONE] | > 135 µM |
| NS(=O)(=O)Cc1noc2ccccc12 [ZONISAMIDE] | > 135 µM |
| CCOC(=O)C(C)(C)Oc1ccc(Cl)cc1 [CLOFIBRATE] | 60 to 75 µM |
| CC(C)OC(=O)C(C)(C)Oc1ccc(C(=O)c2ccc(Cl)cc2)cc1 [FENOFIBRATE] | 15.3 µM |
| Cc1ccc(NC(=O)c2ccc(CN3CCN(C)CC3)cc2)cc1Nc1nccc(-c2cccnc2)n1 [IMATINIB] | 25.1 µM |
| Nc1nc(O)c2ncn(COC(CO)CO)c2n1 [GANCICLOVIR] | > 135 µM |
| CC(C)(C)NCC(O)c1cc(O)cc(O)c1 (stereo not given) [TERBUTALINE] | > 135 µM |

Reference: ChEMBL document CHEMBL4011581, “Interference with bile salt export pump function is a susceptibility factor for human liver injury in drug development” (Toxicol Sci, 2010)
